In ChEMBL document CHEMBL1155707, “New lipopeptides from the Caribbean cyanobacterium Lyngbya majuscula” (J Nat Prod, 2001):

Tests used:
Assay type in all cases: functional, cell-based
[1] = tested on: P388; assay: Cytotoxicity against mouse P388 cells
[2] = tested on: A549; assay: Cytotoxicity against human A549 cells
[3] = tested on: HT-29; assay: Cytotoxicity against human HT-29 cells
[4] = tested on: SK-MEL-28; assay: Cytotoxicity against human SK-MEL-28 cells

Measured: IC50

C[C@@H](c1nccs1)N(C)C(=O)[C@H](C[C@H](C)C(Cl)(Cl)Cl)NC(=O)C[C@H](C)C(Cl)(Cl)Cl [PSEUDODYSIDENIN]
> 1 µg/mL: all assays above
